From PMC12584752, “Covalent fragment screening to inhibit the E3 ligase activity of bacterial NEL enzymes SspH1 and SspH2” (RSC Chemical Biology, 2025)
“Also recorded” adds a separate entry of the source.

Key:
Format in all cases: binding
Conditions in all cases: dilution series 100–6.25 μM, 24 hours at 4 °C
[1] = target: T1, IpaH9.8 (21–545) (Shigella flexneri, UniProt Q8VSC3); assay: Intact protein LC-MS covalent fragment labelling
T1 construct: Recombinant IpaH9.8 (21–545) and SspH1 (161–700) were incubated at 0.5 μM; His-tag (N, cleaved yes); made in house; host or cells: E. coli BL21
T1 sequence (Q8VSC3 21-545): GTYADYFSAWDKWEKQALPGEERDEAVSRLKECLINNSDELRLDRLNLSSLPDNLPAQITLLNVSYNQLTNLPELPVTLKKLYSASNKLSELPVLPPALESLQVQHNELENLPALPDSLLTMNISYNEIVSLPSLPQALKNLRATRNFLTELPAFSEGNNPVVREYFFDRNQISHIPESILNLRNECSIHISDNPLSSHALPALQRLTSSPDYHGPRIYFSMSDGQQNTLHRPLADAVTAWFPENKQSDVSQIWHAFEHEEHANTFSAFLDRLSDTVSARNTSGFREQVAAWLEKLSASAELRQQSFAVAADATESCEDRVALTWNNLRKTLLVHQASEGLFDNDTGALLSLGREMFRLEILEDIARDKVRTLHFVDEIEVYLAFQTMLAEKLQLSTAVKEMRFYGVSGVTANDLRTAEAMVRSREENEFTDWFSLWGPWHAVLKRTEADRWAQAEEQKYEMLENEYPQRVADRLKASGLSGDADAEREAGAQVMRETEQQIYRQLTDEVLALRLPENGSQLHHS
Excerpt: A diverse library of 227 compounds with chloroacetamide warheads, featuring a diversity of molecular weight (162–321 Da) and clog P (−1.4 to 3.4) (Table S1), were screened against Salmonella and Shigella NEL E3 ligases using our intact protein liquid chromatography mass spectrometry (LC-MS) platform as previously described.[39,40] Briefly, recombinant SspH1 (161–700[30]) and IpaH9.8 (21–545[29]) (Fig. […] 1C). Raw counts were deconvoluted and the labelling percentage calculated by detection and comparison of protein and protein-fragment molecular weights.
Fig. 1 Intact protein LCMS screening of covalent fragment library against NEL proteins. (A) Cartoon depicting conserved NEL E3 ligase domains; (B) overlaid structures of SspH1 (blue, PDB 9H6W[30]) and IpaH9.8 (green, PDB 6LOL[29]) aligned on NEL domain; (C) workflow of covalent fragment screening using intact LC-MS; (D) fragment labelling percentages for SspH1 and IpaH9.8 with fragments 1–3 highlighted. […]
To mitigate the risk of selecting compounds which indiscriminately recognise ubiquitin binding proteins, we next performed preliminary selectivity studies with compounds 6 and 7 against human ubiquitin system proteins. […] In parallel, we tested the compounds against related NEL E3 ligases SspH2 and IpaH9.8. […]

[2] = target: T2, DUB OTUD4 (Homo sapiens, UniProt Q01804); assay: Intact LC-MS labelling selectivity
T2 construct: OTUD4 aa 1–156; His-tag (N, cleaved yes); made in house; host or cells: E. coli BL21
T2 sequence (Q01804 1-156): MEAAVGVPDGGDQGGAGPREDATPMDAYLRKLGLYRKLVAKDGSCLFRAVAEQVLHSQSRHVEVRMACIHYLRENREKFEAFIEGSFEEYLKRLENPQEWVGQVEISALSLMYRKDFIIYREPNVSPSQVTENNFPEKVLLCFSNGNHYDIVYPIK
Method: (§1) Fig. 3 Validation of HTC hit compounds by intact MS. Labelling heatmaps of dilution series (100–6.25 μM) of compounds 4–10 with (A) WT SspH1 and (B) C492K SspH1. Labelling heatmaps of dilution series of (C) compound 6 and (D) compound 7 with bacterial and human ubiquitin binding proteins. Recombinant proteins were incubated at either 1.0 or 0.5 μM with 50 μM fragments for 24 hours at 4 °C, before fragment labelling was analysed by intact LC-MS. Bacterial proteins are shown in bold and human proteins in italic fonts. (E)–(H) Kinetics analyses: time courses (0–12 hours) of compound labelling (100–1.56 μM) of SspH1 and SspH2 (0.5 μM) for (E) SspH1 and compound 7, and (F) SspH2 and compound 6. Measurements were performed in technical triplicates. Labelling percentages were plotted against time in GraphPad Prism v.10, and curves fitted separately for each replicate using one-phase association, with constraints Y0 = 0 and plateau = highest labelling percentage. Graphs for SspH1 and compound 6, and SspH2 and compound 7 are shown in Fig. S4A and B. Rate constants (kobs, as given by Graphpad Prism calculated K values) were plotted against fragment concentration in triplicate for (G) SspH1 and (H) SspH2. Straight lines were fitted with constraint Yintercept = 0. For SspH2 kinetics, 100 μM kobs was outside the linear range.
(§2) To mitigate the risk of selecting compounds which indiscriminately recognise ubiquitin binding proteins, we next performed preliminary selectivity studies with compounds 6 and 7 against human ubiquitin system proteins. […] In parallel, we tested the compounds against related NEL E3 ligases SspH2 and IpaH9.8. […] Our identification of dual SspH1 and SspH2 ligands is likely due to the high protein sequence similarity of SspH1 and SspH2 (60% for full length; 78% for NEL domains).
(§3) Dilution series experiments were performed as for 1st round screening. 1 μM OTUD4, OTUD5 or 0.5 μM HOIL, UbcH5A, SspH2, SspH1 C492K were incubated with 100–6.25 μM compounds for 24 hours at 4 °C, in 25 mM HEPES pH 7.5, 50 mM NaCl buffer. Intact protein LC-MS was performed as previously described.[40] The following deconvolution conditions were used for recombinant proteins studied in this work: […]

[3] = target: T3, DUB OTUD5 (Homo sapiens, UniProt Q96G74); assay: Intact LC-MS labelling selectivity
T3 construct: OTUD5 aa 172–351; His-tag (N, cleaved yes); made in house; host or cells: E. coli BL21
T3 sequence (Q96G74 172-351): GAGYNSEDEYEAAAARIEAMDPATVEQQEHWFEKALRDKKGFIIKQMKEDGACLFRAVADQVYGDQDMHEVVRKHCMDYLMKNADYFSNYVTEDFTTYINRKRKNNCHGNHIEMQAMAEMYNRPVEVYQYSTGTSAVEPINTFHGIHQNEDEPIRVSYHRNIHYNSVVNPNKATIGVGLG
Method: as §1, §2, §3

[4] = target: T4, RBR-type E3 HOIL (Homo sapiens, UniProt Q9BYM8); assay: Intact LC-MS labelling selectivity
T4 construct: HOIL aa 1–510; His-tag (N, cleaved yes); made in house; host or cells: E. coli BL21
T4 sequence (Q9BYM8 1-510): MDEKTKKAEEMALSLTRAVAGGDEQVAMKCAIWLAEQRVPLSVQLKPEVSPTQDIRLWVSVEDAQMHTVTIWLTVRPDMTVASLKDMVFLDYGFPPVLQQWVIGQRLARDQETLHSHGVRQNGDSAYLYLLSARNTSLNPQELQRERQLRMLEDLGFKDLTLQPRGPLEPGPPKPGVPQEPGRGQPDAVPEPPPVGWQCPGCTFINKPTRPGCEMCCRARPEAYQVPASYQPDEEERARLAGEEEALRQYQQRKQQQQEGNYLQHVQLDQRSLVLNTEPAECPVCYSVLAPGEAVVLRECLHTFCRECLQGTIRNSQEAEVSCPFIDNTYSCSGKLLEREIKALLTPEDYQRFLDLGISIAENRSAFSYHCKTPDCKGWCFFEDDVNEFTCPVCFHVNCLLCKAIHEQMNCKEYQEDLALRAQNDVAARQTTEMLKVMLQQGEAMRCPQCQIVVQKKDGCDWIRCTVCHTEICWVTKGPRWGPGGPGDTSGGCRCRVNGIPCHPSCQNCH
Method: as §1, §2, §3

[5] = target: T5, human E2 UbcH5A (Homo sapiens, UniProt P51668); assay: Intact LC-MS labelling selectivity
T5 construct: UbcH5A aa 1–147; His-tag (N, cleaved yes); made in house; host or cells: E. coli BL21
T5 sequence (P51668 whole entry, the tested form may be a part): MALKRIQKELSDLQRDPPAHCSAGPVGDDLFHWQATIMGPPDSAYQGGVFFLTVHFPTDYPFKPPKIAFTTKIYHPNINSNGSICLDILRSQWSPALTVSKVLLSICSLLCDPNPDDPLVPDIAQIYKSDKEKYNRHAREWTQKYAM
Method: as §1, §2, §3

SMILES | labelling of IpaH9.8 [1] | labelling of OTUD4 [2] | labelling of OTUD5 [3] | labelling of HOIL [4] | labelling of UbcH5A [5]
Cc1cc(-c2nc3ccccc3n2C2CCN(C(=O)CCl)CC2)cc(C)c1O.Cl [compound 6] | minimal labelling | minimal or no labelling | minimal or no labelling | minimal or no labelling | minimal or no labelling; also recorded: not labelled
Cl.O=C(CCl)N1CCC(n2c(-c3ccc(C(F)(F)F)cc3)nc3ccccc32)CC1 [compound 7] | minimal labelling | minimal or no labelling | minimal or no labelling | minimal or no labelling | minimal or no labelling; also recorded: not labelled
